This passage reports inhibition of growth results from US12471596B2 (priority 2019, dated 2025).

This test deals with Phytophthora infestans. Put plainly: microbe, parasite or virus in culture. It is filed as cell-based. The settings on record: in Secale cereale, 168 h, read-out: control compared to the untreated check.
In the case of `COc1cncc(OCC(=O)N2CCC(c3nc(C4=NOC(c5c(Cl)cccc5OS(C)(=O)=O)C4)cs3)CC2)n1` (stereo not shown) [Compound 103, 3-chloro-2-(3-(2-(1-(2-((6-methoxypyrazin-2-yl)oxy)acetyl)piperidin-4-yl)thiazol-4-yl)-4,5-dihydroisoxazol-5-yl)phenyl methanesulfonate], the inhibition of growth at 30 ppm was no less than 70%.

As for `COc1cncc(OCC(=O)N2CCC(c3nc(C4=NOC(c5c(Cl)ccc(F)c5F)C4)cs3)CC2)n1` (stereo not shown) [Compound 104, 1-(4-(4-(5-(6-chloro-2,3-difluorophenyl)-4,5-dihydroisoxazol-3-yl)thiazol-2-yl)piperidin-1-yl)-2-((6-methoxypyrazin-2-yl)oxy)ethan-1-one], the inhibition of growth at 30 ppm was no less than 70%. Regarding `COc1nc(OC)nc(OCC(=O)N2CCC(c3nc(C4=NOC(c5c(Cl)cccc5C(F)(F)F)C4)cs3)CC2)n1` (stereo not shown) [Compound 105, 1-(4-(4-(5-(2-chloro-6-(trifluoromethyl)phenyl)-4,5-dihydroisoxazol-3-yl)thiazol-2-yl)piperidin-1-yl)-2-((4,6-dimethoxy-1,3,5-triazin-2-yl)oxy)ethan-1-one], the inhibition of growth at 30 ppm is no less than 70%. As for `COc1nc(OC)nc(OCC(=O)N2CCC(c3nc(C4=NOC(c5c(Cl)cccc5Cl)C4)cs3)CC2)n1` (stereo not shown) [Compound 106, 1-(4-(4-(5-(2,6-dichlorophenyl)-4,5-dihydroisoxazol-3-yl)thiazol-2-yl)piperidin-1-yl)-2-((4,6-dimethoxy-1,3,5-triazin-2-yl)oxy)ethan-1-one], the figure is no less than 70%. As for `COc1nc(OC)nc(OCC(=O)N2CCC(c3nc(C4=NOC(c5c(Cl)cccc5OS(C)(=O)=O)C4)cs3)CC2)n1` (stereo not shown) [Compound 107, 3-chloro-2-(3-(2-(1-(2-((4,6-dimethoxy-1,3,5-triazin-2-yl)oxy)acetyl)piperidin-4-yl)thiazol-4-yl)-4,5-dihydroisoxazol-5-yl)phenyl methanesulfonate], the figure is no less than 70%; as for `COc1nc(OC)nc(OCC(=O)N2CCC(c3nc(C4=NOC(c5c(F)cccc5F)C4)cs3)CC2)n1` (stereo not shown) [Compound 109, 1-(4-(4-(5-(2,6-difluorophenyl)-4,5-dihydroisoxazol-3-yl)thiazol-2-yl)piperidin-1-yl)-2-((4,6-dimethoxy-1,3,5-triazin-2-yl)oxy)ethan-1-one], no less than 70%; as for `O=C(COc1nccnc1Cl)N1CCC(c2nc(C3=NOC(c4c(Cl)ccc(F)c4F)C3)cs2)CC1` (stereo not shown) [Compound 111, 1-(4-(4-(5-(6-chloro-2,3-difluorophenyl)-4,5-dihydroisoxazol-3-yl)thiazol-2-yl)piperidin-1-yl)-2-((3-chloropyrazin-2-yl)oxy)ethan-1-one], no less than 70%. As for `N#Cc1ccnc(OCC(=O)N2CCC(c3nc(C4=NOC(c5c(F)cccc5Br)C4)cs3)CC2)n1` (stereo not shown) [Compound 117, 2-(2-(4-(4-(5-(2-bromo-6-fluorophenyl)-4,5-dihydroisoxazol-3-yl)thiazol-2-yl)piperidin-1-yl)-2-oxoethoxy)pyrimidine-4-carbonitrile], the figure is no less than 70%. Take `COc1cncc(OCC(=O)N2CCC(c3nc(C4=NOC(c5c(F)cccc5F)C4)cs3)CC2)n1` (stereo not shown) [Compound 119, 1-(4-(4-(5-(2,6-difluorophenyl)-4,5-dihydroisoxazol-3-yl)thiazol-2-yl)piperidin-1-yl)-2-((6-methoxypyrazin-2-yl)oxy)ethan-1-one]: the inhibition of growth at 30 ppm is no less than 70%. In the case of `COc1ncc(OCC(=O)N2CCC(c3nc(C4=NOC(c5c(Cl)cccc5OS(C)(=O)=O)C4)cs3)CC2)cn1` (stereo not shown) [Compound 130, 3-chloro-2-(3-(2-(1-(2-((2-methoxypyrimidin-5-yl)oxy)acetyl)piperidin-4-yl)thiazol-4-yl)-4,5-dihydroisoxazol-5-yl)phenyl methanesulfonate], the inhibition of growth at 30 ppm was no less than 70%. As for `COc1ncc(OCC(=O)N2CCC(c3nc(C4=NOC(c5c(F)cccc5Cl)C4)cs3)CC2)cn1` (stereo not shown) [Compound 132, 1-(4-(4-(5-(2-chloro-6-fluorophenyl)-4,5-dihydroisoxazol-3-yl)thiazol-2-yl)piperidin-1-yl)-2-((2-methoxypyrimidin-5-yl)oxy)ethan-1-one], the figure is no less than 70%; as for `COc1ncc(OCC(=O)N2CCC(c3nc(C4=NOC(c5c(Cl)cc(Cl)cc5Cl)C4)cs3)CC2)cn1` (stereo not shown) [Compound 133, 2-((2-methoxypyrimidin-5-yl)oxy)-1-(4-(4-(5-(2,4,6-trichlorophenyl)-4,5-dihydroisoxazol-3-yl)thiazol-2-yl)piperidin-1-yl)ethan-1-one], no less than 70%; as for `COc1ncc(OCC(=O)N2CCC(c3nc(C4=NOC(c5c(F)cccc5Br)C4)cs3)CC2)cn1` (stereo not shown) [Compound 134, 1-(4-(4-(5-(2-bromo-6-fluorophenyl)-4,5-dihydroisoxazol-3-yl)thiazol-2-yl)piperidin-1-yl)-2-((2-methoxypyrimidin-5-yl)oxy)ethan-1-one], no less than 70%. As to `COc1ncc(OCC(=O)N2CCC(c3nc(C4=NOC(c5cc(Cl)ccc5Cl)C4)cs3)CC2)cn1` (stereo not shown) [Compound 135, 1-(4-(4-(5-(2,5-dichlorophenyl)-4,5-dihydroisoxazol-3-yl)thiazol-2-yl)piperidin-1-yl)-2-((2-methoxypyrimidin-5-yl)oxy)ethan-1-one], the inhibition of growth at 30 ppm was no less than 70%.

`COc1ncc(OCC(=O)N2CCC(c3nc(C4=NOC(c5c(Cl)cccc5C(F)(F)F)C4)cs3)CC2)cn1` (stereo not shown) [Compound 137, 1-(4-(4-(5-(2-chloro-6-(trifluoromethyl)phenyl)-4,5-dihydroisoxazol-3-yl)thiazol-2-yl)piperidin-1-yl)-2-((2-methoxypyrimidin-5-yl)oxy)ethan-1-one]: the inhibition of growth at 30 ppm is no less than 70%. As for `COc1ncc(OCC(=O)N2CCC(c3nc(C4=NOC(c5c(O)cccc5Cl)C4)cs3)CC2)cn1` (stereo not shown) [Compound 138, 1-(4-(4-(5-(2-chloro-6-hydroxyphenyl)-4,5-dihydroisoxazol-3-yl)thiazol-2-yl)piperidin-1-yl)-2-((2-methoxypyrimidin-5-yl)oxy)ethan-1-one], the figure is no less than 70%. As for `COc1ncc(OCC(=O)N2CCC(c3nc(C4=NOC(c5c(F)cccc5F)C4)cs3)CC2)cn1` (stereo not shown) [Compound 139, 1-(4-(4-(5-(2,6-difluorophenyl)-4,5-dihydroisoxazol-3-yl)thiazol-2-yl)piperidin-1-yl)-2-((2-methoxypyrimidin-5-yl)oxy)ethan-1-one], the figure is no less than 70%. With `CSc1nccnc1OCC(=O)N1CCC(c2nc(C3=NOC(c4c(F)cccc4F)C3)cs2)CC1` (stereo not shown) [Compound 140, 1-(4-(4-(5-(2,6-difluorophenyl)-4,5-dihydroisoxazol-3-yl)thiazol-2-yl)piperidin-1-yl)-2-((3-(methylthio)pyrazin-2-yl)oxy)ethan-1-one] the figure was no less than 70%; with `CSc1nccnc1OCC(=O)N1CCC(c2nc(C3=NOC(c4c(F)cccc4Br)C3)cs2)CC1` (stereo not shown) [Compound 141, 1-(4-(4-(5-(2-bromo-6-fluorophenyl)-4,5-dihydroisoxazol-3-yl)thiazol-2-yl)piperidin-1-yl)-2-((3-(methylthio)pyrazin-2-yl)oxy)ethan-1-one], no less than 70%.
